From US20070172423A1, “Composition and method for modulating vasculogenesis for angiogenesis” (priority 1998, published 2007)
One block for each substance: values may come before it.

What was measured:
[1] = test system: protease in AG1523 medium processing full-length PDGF-C; assay: Protease inhibitor analysis of PDGF-C processing by AG1523 medium; format: biochemical, human; settings: AG1523 serum-free medium, 37° C. overnight, immunoblot
Procedure: To elucidate the mechanism of the proteolysis of PDGF-C a protease inhibitor analysis was conducted. Various protease inhibitors (see Table 1, source: Sigma) were pre-incubated with 0.9 ml of AG1523 serum-free medium at room temperature for 30 minutes, then incubated with 0.2 ml of recombinant full-length PDGF-C (Sf9 serum-free medium) at 37° C. overnight. TCA-precipitated proteins were subjected to SDS-page under reducing conditions and then immunoblotted. Recombinant PDGF-C was detected using an anti-His6 epitope monoclonal antibody (C-terminal) (InVitrogen).

[2] = test system: bovine aorta endothelial cells (BAEC); assay: Cell migration assay, BAEC; format: cell-based; settings: wounded monolayer, 20 hours, serum-free medium
Procedure: (§1) Cell migration assays were performed on growth arrested confluent HMVEC, BAEC or hSMC cells. Cell monolayers were wounded with a rubber policeman and washed with serum-free medium. Dishes were then incubated for 20 hours in serum-free medium containing VEGF165, PDGF-AA, (R&D Systems, Minneapolis USA) or PDGF-CC. Each assay included two dishes per condition and was repeated three times independently. Cells were photographed at 40× magnification, and migration percentage corresponding to the ratio between area of the cells and the total area of the wound (Biocom visiol@b 2000 version 4.52, San Diego). For HMVEC proliferation assay, cells were seeded in 96-well plates (5 wells per condition), and incubated with VEGF, PDGF-AA, or PDGF-CC (50 ng/ml) after serum starvation. After 7 days, viable cells were counted using the cell Titer-glo luminescent cell viability assay. For NIH-3T3 and hSMC proliferation assay, cells cultured in 96-well plates were serum-starved overnight, followed by treatment with growth factors at different concentrations. Two days later, cell numbers were counted and proliferation percentage calculated, using cells cultured in medium containing 10% serum as control. Aortic ring assay was performed as described 51. […] Aortic rings were analysed at day 9 of culturing. […]

HMVEC = HMVEC proliferation assay; format: cell-based, human; settings: 50 ng/ml, 7 days
Procedure: as §1

aortic rings = assay: Aortic ring assay; format: cell-based; settings: for number of sprouting microvessels: day 9 of culturing, versus control
Procedure: Cell migration assays were performed on growth arrested confluent HMVEC, BAEC or hSMC cells. Cell monolayers were wounded with a rubber policeman and washed with serum-free medium. Dishes were then incubated for 20 hours in serum-free medium containing VEGF165, PDGF-AA, (R&D Systems, Minneapolis USA) or PDGF-CC. Each assay included two dishes per condition and was repeated three times independently. Cells were photographed at 40× magnification, and migration percentage corresponding to the ratio between area of the cells and the total area of the wound (Biocom visiol@b 2000 version 4.52, San Diego). For HMVEC proliferation assay, cells were seeded in 96-well plates (5 wells per condition), and incubated with VEGF, PDGF-AA, or PDGF-CC (50 ng/ml) after serum starvation. After 7 days, viable cells were counted using the cell Titer-glo luminescent cell viability assay. For NIH-3T3 and hSMC proliferation assay, cells cultured in 96-well plates were serum-starved overnight, followed by treatment with growth factors at different concentrations. Two days later, cell numbers were counted and proliferation percentage calculated, using cells cultured in medium containing 10% serum as control. Aortic ring assay was performed as described 51. Briefly, one-millimeter long aortic rings were embedded in gels of rat tail interstitial collagen and cultured at 37° C., supplemented with different growth factors (50 ng/ml). Aortic rings were analysed at day 9 of culturing. Experiments included three explants per condition and were repeated at least twice. Aortic rings were photographed at 25× magnification.
Although PDGFR-α is expressed on endothelial cells (Edelberg et al., Journal of Clinical Investigation, 1998 102:837-43; Smits et al., Growth Factors, 1989 2:1-8; Bar et al., Endocrinology, 1989 124:1841-8; Beitz et al., Proc Natl Acad Sci USA, 1991 88:2021-5; Marx et al., J Clin Invest, 1994 93:131-9; Shinbrot et al., Dev. Dyn., 1994 199:169-175), little is known about the functional consequence of PDGFR-α signaling in these cells. […] We also tested the effect of PDGF-CC on cultured aortic rings, as this assay allows assessment of the outgrowth of microvessels from an intact vessel in vitro (Blacher et al., Angiogenesis, 2001 4:133-42). Results are graphically represented as the number of microvessels and the distance over which they grew out from the aortic ring. Each experiment included three explants per condition and was repeated at least twice. At day 9 after culturing, microvessels and the distance of their outgrowth were quantified and evaluated using Student's t test. In baseline conditions, only a small number of microvessels sprouted from the aortic rings—most of them over very short distances (0.25 mm from the aortic ring)—and only a small fraction (<5%) growing out over longer distances (>0.5 mm from the aortic ring, FIG. 41a). VEGF increased not only the number of sprouting microvessels (P<0.001 at all concentrations versus control), but also the distance over which they grew out (P<0.05 at all concentrations versus control; FIG. 41b,f). At 30 ng/ml, PDGF-CC increased the number of microvessels (P<0.001 versus control, FIG. 41e,g) and increased the distance of vessel outgrowth at 5 ng/ml (P<0.01 versus control, FIG. 41g). […] A similar bell-shaped dose-response relationship has been documented for other members of the VEGF/PDGF-superfamily (Jin et al., J Mol Neurosci, 2000 14:197-203). PDGF-AA, however, had no effect on the number of microvessels, although it increased the distance of vessel outgrowth at 5 ng/ml (P<0.01 versus control, FIG. 41h). Thus, PDGF-CC mobilized EC migration in cultured cells and promoted microvessel sprouting in the aortic ring assay.
The mitogenic and chemotactic effect of PDGF-CC was then tested on SMCs and perivascular fibroblast cells, and the effect of PDGF-CC was compared to that of VEGF and PDGF-AA in both cultured cells and the aortic ring assay (Blacher et al., Angiogenesis, 2001 4:133-42). […]

hSMC [3] = assay: Cell migration assay, hSMC; format: cell-based, human; settings: wounded monolayer, 20 hours
Procedure: as §1, with “For HMVEC proliferation assay, cells were seeded in 96-well plates (5 wells per condition), and incubated with VEGF, PDGF-AA, or PDGF-CC (50 ng/ml) after serum starvation.” left out, “For NIH-3T3 and hSMC proliferation assay, cells cultured in 96-well plates were serum-starved overnight, followed by treatment with growth factors at different concentrations.” left out, “control.” for “control. Aortic ring assay was performed as described 51.”
The mitogenic and chemotactic effect of PDGF-CC was then tested on SMCs and perivascular fibroblast cells, and the effect of PDGF-CC was compared to that of VEGF and PDGF-AA in both cultured cells and the aortic ring assay (Blacher et al., Angiogenesis, 2001 4:133-42). […] In the aortic ring assay, we quantified the growth and emigration of perivascular fibroblasts from the intact vessel using computer-assisted image analysis after treatment with VEGF and different PDGFs at different concentrations. […]

NIH-3T3 fibroblast cells = assay: NIH-3T3 proliferation assay; format: cell-based; settings: two days, different concentrations
Procedure: as §1

hSMC [4] = assay: hSMC proliferation assay; format: cell-based, human; settings: two days, different concentrations
Procedure: as §1

[5] = molecular target: T1, human PDGF receptor alpha (Homo sapiens, UniProt P16234); assay: Competition with 125I-PDGF-BB for binding to PAE-1 cells expressing PDGF alpha-receptor; settings: 5 ng/ml 125I-PDGF-BB tracer, on ice 90 minutes
T1 construct: expressed in transfected cells
T1 sequence (P16234 24-1089): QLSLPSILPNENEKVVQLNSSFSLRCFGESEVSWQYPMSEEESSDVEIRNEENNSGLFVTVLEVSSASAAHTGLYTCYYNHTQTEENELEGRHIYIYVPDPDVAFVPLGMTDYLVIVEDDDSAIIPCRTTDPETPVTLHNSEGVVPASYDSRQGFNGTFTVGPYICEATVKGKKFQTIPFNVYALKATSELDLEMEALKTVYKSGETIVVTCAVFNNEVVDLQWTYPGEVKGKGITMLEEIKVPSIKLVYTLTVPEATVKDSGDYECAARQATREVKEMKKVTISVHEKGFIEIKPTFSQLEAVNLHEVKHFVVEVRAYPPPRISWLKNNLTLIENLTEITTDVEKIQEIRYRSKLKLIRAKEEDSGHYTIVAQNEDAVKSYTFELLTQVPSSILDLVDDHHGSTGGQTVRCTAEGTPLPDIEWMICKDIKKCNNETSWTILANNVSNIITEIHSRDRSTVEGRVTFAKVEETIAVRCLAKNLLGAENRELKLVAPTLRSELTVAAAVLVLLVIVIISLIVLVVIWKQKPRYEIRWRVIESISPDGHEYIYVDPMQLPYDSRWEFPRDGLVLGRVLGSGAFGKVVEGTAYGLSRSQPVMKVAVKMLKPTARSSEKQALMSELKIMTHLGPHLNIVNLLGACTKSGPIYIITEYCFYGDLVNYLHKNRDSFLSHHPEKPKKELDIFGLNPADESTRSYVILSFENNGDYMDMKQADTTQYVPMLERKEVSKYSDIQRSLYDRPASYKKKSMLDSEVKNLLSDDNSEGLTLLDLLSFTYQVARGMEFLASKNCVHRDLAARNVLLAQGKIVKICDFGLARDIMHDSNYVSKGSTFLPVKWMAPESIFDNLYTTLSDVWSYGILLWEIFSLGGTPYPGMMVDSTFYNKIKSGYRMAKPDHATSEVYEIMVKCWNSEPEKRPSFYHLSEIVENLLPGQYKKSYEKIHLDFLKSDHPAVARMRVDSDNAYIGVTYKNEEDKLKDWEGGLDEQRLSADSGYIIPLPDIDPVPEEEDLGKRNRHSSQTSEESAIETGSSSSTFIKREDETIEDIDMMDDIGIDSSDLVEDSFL
Procedure: Next, full length and truncated PDGF-C were tested for their capacity to bind to human PDGF receptors alpha and beta by analyzing their abilities to compete with PDGF-BB for binding to PDGF receptors. The binding experiments were performed on porcine aortic endothelial-1 (PAE-1) cells stably expressing the human PDGF receptors alpha and beta (Eriksson et al., EMBO J, 1992, 11, 543-550). Binding experiments were performed essentially as in Heldin et al. (EMBO J, 1988, 7:1387-1393). Different concentrations of human full-length and truncated PDGF-C, or human PDGF-BB were mixed with 5 ng/ml of ^125I-PDGF-BB in binding buffer (PBS containing 1 mg/ml of bovine serum albumin). Aliquots were incubated with the receptor expressing PAE-1 cells plated in 24-well culture dishes on ice for 90 minutes. After three washes with binding buffer, cell-bound 125]-PDGF-BB was extracted by lysis of cells in 20 mM Tris-HCl, pH 7.5, 10% glycerol, 1% Triton X-100. The amount of cell bound radioactivity was determined in a gamma-counter. A standard curve for the binding of ^125I-labeled PDGF BB homodimers to PAE-1 cells expressing PDGF alpha-receptor is shown in FIG. 18.

[6] = test system: human bone marrow-derived AC133+CD34+ cells; assay: Human bone marrow cell adherence and differentiation assay; format: cell-based; settings: 50 ng/ml
Procedure: Enriched human BM derived AC133+CD34+ cells (Clonetics) at 10^5/ml were cultured for 3 days in HPGM (Clonetics) in a 6-well plate (Becton Dickinson). Cells were then seeded in collagen coated 12-well plates in EBM (Clonetics) medium containing 4% FCS and VEGF165 (R&D Systems) or PDGF-CC (50 ng/ml each). Growth factors were added every two days and media were refreshed at 75% every four days. For adherence assay, 2.5×10^4 of non-adherent cells/ml were cultured in the same condition on chamber slides coated with collagen, or in 96-well plate coated with 0.3% gelatin in PBS. Cells were then washed three times with PBS, fixed and stained with May-Grünwald Giemsa (Sigma) after two weeks of culture on chamber slides (Becton Dickinson). The number of viable cells was estimated by ATP quantification using cellTiter-glo luminescent cell viability assay (Promega) according to the manufacturer's instructions. For cell surface marker staining, cells (2×10^4/well) cultured on collagen-coated culture slides for two or four weeks were fixed (45 min, 25° C.) and permeabilized (45 min, 25° C.) using a Intrastain Kit (DAKO), and then labeled with CD31-FITC (Becton Dickinson), CD144-FITC (Pharmingen), CD34-FITC (Becton Dickinson) or SMC-Actin CY3 (Sigma). Single or double-labeled cells were analyzed using laser confocal immunofluorescence microscopy.
Upon stimulation by growth factors or cytokines, bone marrow stem/progenitor cells can differentiate into ECs and SMCs and thereby contribute to angio/arteriogenesis (Orlic et al., Nature, 2001 410:701-5; Kawamoto et al., Circulation, 2001 103:634-7; Asahara et al., Circ Res, 1999 85:221-8). The potential role of PDGF-CC in the differentiation of bone marrow progenitors into vascular cells has, however, not been investigated thus far. We therefore cultured human bone marrow-derived AC133^+CD34^+ cells—a population enriched for stem/progenitor cells (Miraglia et al., Blood, 1997 90:5013-21; Yu et al., J Biol Chem, 2002 277:20711-6; Donnelly et al., Leuk Lymphoma, 2001 40:221-34)—and stimulated them with PDGF-CC, using VEGF as a control (50 ng/ml each).

[7] = test system: human microvascular endothelial cells (HMVEC); assay: Cell migration assay, HMVEC; format: cell-based; settings: wounded monolayer, 20 hours, serum-free medium
Procedure: as §1

Substance: Aprotinin
inhibition of proteolytic processing of full-length PDGF-C [1]: capacity to inhibit

Substance: PDGF-AA: PDGF A-chain homodimer (R&D Systems), PDGFR-α ligand used as control
migration of BAEC [2]: no effect | EC proliferation (HMVEC): no effect | distance of vessel outgrowth (aortic rings; 5 ng/ml, day 9, versus control): increased | number and emigration of perivascular fibroblast-like cells (aortic rings; day 9, versus control): intermediate effect | number of sprouting microvessels (aortic rings): no effect | hSMC migration (hSMC [3]): stimulated | proliferation of cultured NIH-3T3 fibroblast cells (NIH-3T3 fibroblast cells): stimulated | proliferation of cultured hSMC cells (hSMC [4]): stimulated

competition for binding to the PDGF alpha-receptor [5]: competed efficiently
Substance: PDGF-BB: human PDGF B-chain homodimer, unlabeled competitor and 125I tracer [reference compound]

Substance: VEGF
SMA expression ([6]; four weeks): remained SMA negative | expression of CD144 and CD31 ([6]; four weeks): still CD144 and CD31 positive | adherence of AC133+CD34+ cells ([6]; two weeks of stimulation): enhanced | expression of EC surface markers CD144 (VE-cadherin) and CD31 (PECAM) ([6]; two weeks of stimulation): induced | expression of smooth muscle cell marker SMA ([6]; two weeks of stimulation): did not become SMA positive | migration of HMVECs [7]: stimulated | EC proliferation (HMVEC): highly stimulated | distance over which microvessels grew out (aortic rings; all concentrations, day 9, versus control): increased | number and emigration of perivascular fibroblast-like cells (aortic rings; day 9, versus control): in effective | number of sprouting microvessels (aortic rings): increased | hSMC migration (hSMC [3]): no effect
